These results are taken from patent US20100279969A1, “AZIDO PURINE NUCLEOSIDES FOR TREATMENT OF VIRAL INFECTIONS” (priority 2007, published 2010).

Where only a bound is given, the exact number is not on record here.

Series [1] has as its system HIV-1AZT7 (M41L/D67N/K70R/T215F/K219Q). The series is described as follows: Drug susceptibility assay against drug-resistant HIV, fold resistance. It is filed as cell-based. As to conditions: EC50 for mutant HIV-1 divided by EC50 for WT HIV-1. The protocol:
At 48 h post-infection, a cell lysis buffer and luminescent substrate (Gal-Screen; Tropix/Applied Biosystems) was added to each well, and relative light unit values were determined using a luminometer (ThermoLabSystems, Waltham, Mass.).
Drug susceptibility assays were performed using the single- and multiple-replication-cycle assays also described above.

Another series concerns HepG2 cells. As to conditions: HepG2 cells incubated with 10 μM; cited from earlier work.
The test system of another series is HIV-1 RT containing TAMS. As to conditions: cited from earlier work.
For the next series, the system named is adenosine deaminase. It is filed as in vitro ADME. As to conditions: 7 minutes with 0.002 units of enzyme; 50 μM, pH 7.4, 25° C. The protocol:
To determine the propensity for deamination of the APN nucleosides by adenosine deaminase, compounds were incubated with the commercially available purified enzyme, and the reaction was followed spectrophotometrically. Reaction conditions were 50 mM potassium phosphate, pH 7.4, with 50 μM APN nucleoside in 0.5 mL at 25° C. Reaction time was 7 minutes with 0.002 units of enzyme and 120 minutes with 0.2 units of enzyme. (The unit definition of adenosine deaminase is one unit will deaminate 1.0 μmol of adenosine to inosine per minute at pH 7.5 at 25° C.) Deoxyadenosine was the positive control which was 59% deaminated under the given conditions in 7 minutes with 0.002 units of enzyme. Deoxyguanosine was the negative control. Optical density was measured at 265 nm or 285 nm. The difference in optical density between the beginning and the end of the experiment was divided by the extinction coefficient then multiplied by the volume of the reaction to determine the number of mols of substrate transformed into product. Mols of product were divided by mols of substrate equivalent to a 100% complete reaction then multiplied by 100 to obtain percent deamination. The limit of detection was 0.001 optical density units.

In series [1], `Cc1cn([C@H]2C[C@H](N=[N+]=[N-])[C@@H](CO)O2)c(=O)[nH]c1=O` [AZT, 3′-azido-3′-deoxythymidine] yielded a fold resistance above 500 fold.
With `O=c1[nH]c(=O)n([C@@H]2O[C@H](CO)[C@@H](O)[C@@H]2F)cc1I` [fialuridine, 1,2′-deoxy-2′-fluoro-1-D-arabinofuranosly-5-iodo-uracil], the “mitochondrial morphology in electron micrographs” value in the series on HepG2 cells is reported as “enlarged mitochondria with morphological changes consistent with mitochondrial dysfunction”.
Consider `Cc1cn([C@H]2C[C@H](N=[N+]=[N-])[C@@H](COP(=O)(O)O)O2)c(=O)[nH]c1=O` [AZT-MP], for which the “lower sensitivity of excision to inhibition by the next-correct dNTP than other NRTI analogs that lack a 3′-azido group” value in the series on HIV-1 RT containing TAMS is recorded as above 50 fold.
For the compound `Nc1ncnc2c1ncn2[C@H]1C[C@H](O)[C@@H](CO)O1` [Deoxyadenosine], in the series with adenosine deaminase, the percent deamination was 59%.
